Results reported in patent US4642355A, “Proline derivatives” (Otsuka Pharmaceutical Factory, Inc., priority 1984, dated 1987).
Counter-ions that a name gives are not always drawn.

How the values were obtained:
[1] = biological target: T1, angiotensin-converting enzyme (ACE) (Oryctolagus cuniculus, UniProt P12822); assay: Inhibitory activity against angiotensin-converting enzyme (ACE); assay type: biochemical, rabbit; conditions: for ACE inhibitory activity higher than Test Compound No. 4 (fold): compared with Test Compound No. 4; for IC50: enzyme from rabbit lung acetone powder, substrate hippurylhistidyl-leucine, 37° C.
T1 construct: enzyme solution prepared from rabbit lung acetone powder; tissue Sigma Chemical Co., Ltd., U.S.A; host or cells: rabbit lung (acetone powder)
T1 sequence (P12822 34-1310): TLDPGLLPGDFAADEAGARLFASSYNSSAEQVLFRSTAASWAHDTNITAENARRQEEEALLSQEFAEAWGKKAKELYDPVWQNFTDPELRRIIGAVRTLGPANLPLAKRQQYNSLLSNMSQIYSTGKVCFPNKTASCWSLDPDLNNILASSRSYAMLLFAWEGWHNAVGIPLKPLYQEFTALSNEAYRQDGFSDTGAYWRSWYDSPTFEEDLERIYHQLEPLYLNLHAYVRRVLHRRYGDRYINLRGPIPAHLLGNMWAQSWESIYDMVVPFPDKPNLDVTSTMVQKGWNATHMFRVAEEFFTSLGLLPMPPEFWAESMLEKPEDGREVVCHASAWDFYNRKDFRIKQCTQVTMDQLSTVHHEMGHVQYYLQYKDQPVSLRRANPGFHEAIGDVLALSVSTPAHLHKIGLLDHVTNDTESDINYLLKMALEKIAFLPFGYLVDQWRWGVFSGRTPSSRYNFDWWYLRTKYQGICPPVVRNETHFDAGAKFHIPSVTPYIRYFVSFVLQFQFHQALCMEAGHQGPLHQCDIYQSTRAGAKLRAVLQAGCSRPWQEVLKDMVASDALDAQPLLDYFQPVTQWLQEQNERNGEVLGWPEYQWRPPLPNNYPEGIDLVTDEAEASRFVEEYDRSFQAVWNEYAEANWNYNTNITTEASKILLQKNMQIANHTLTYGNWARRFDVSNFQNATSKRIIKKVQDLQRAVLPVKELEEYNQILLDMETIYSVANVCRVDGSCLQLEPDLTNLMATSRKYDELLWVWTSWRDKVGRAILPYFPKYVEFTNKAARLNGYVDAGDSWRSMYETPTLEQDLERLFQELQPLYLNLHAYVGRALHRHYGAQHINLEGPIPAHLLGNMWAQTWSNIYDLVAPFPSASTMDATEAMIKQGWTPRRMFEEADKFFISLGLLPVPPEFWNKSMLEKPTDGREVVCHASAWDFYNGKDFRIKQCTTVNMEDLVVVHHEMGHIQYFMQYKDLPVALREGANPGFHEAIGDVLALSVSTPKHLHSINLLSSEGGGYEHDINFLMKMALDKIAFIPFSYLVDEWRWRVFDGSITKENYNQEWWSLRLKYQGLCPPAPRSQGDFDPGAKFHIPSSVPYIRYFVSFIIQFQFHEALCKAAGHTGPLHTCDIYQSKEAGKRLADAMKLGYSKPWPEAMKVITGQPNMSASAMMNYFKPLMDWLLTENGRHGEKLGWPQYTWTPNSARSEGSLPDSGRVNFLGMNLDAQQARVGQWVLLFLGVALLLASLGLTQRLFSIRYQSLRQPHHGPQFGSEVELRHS
Protocol: Inhibitory activity against angiotensin-converting enzyme (ACE)
A 100 μl quantity of an enzyme solution prepared from rabbit lung acetone powder (product of Sigma Chemical Co., Ltd., U.S.A.) was mixed with 100 μl of a sample solution. The mixture was gently shaken at 37° C. for 10 minutes. To the reaction mixture was added 100 μl of a solution containing 6.99 mM of hippurylhistidyl-leucine (product of Peptide Institute, Inc., Japan) as a substrate. The mixture was reacted at 37° C. for 45 minutes while being shaken. The reaction was terminated by addition of 200 μl of a 1N sulfuric acid aqueous solution to the reaction mixture. Sodium chloride (saturation amount) and diethyl ether (2 ml) were added to the reaction mixture to extract the hippuric acid formed by the reaction. The resulting mixture was vigorously shaken for 15 minutes and centrifuged at 2000 rpm for 5 minutes. A 1.5 ml quantity of the ether layer was separated. After the solvent was distilled off, the residue was redissolved in 1.5 ml of distilled water and the absorbance at 228 nm was measured. A control was prepared by repeating the same procedure as above except that 100 μl of distilled water was used in place of the sample solution.
The inhibitory activity was calculated by deducting the absorbance value of the residue formed by addition of the sample solution from that of the control, and the resulting value was divided by the absorbance value of the control and multiplied by 100, thereby giving a percent inhibition. The inhibitory activity was expressed as IC50, i.e., the concentration of the sample solution in the reaction mixture in which concentration 50% inhibition is achieved.
The test compounds used in the experiment are shown below.

[2] = test system: angiotensin-converting enzyme (ACE); assay: ACE inhibitory effect in normotensive rats (inhibition of pressor response to angiotensin I); assay type: in vivo; conditions: 1 mg/kg directly to the stomach, male Wistar rats, urethane anesthesia, AI/AII ratio
Protocol: ACE Inhibitory effect in normotensive rats
Male Wistar rats weighing 200 to 400 g were anesthetized by the intraperitoneal injection of urethane (1.25 g/kg) and held in the supine position. The degree of inhibition of pressor response to angiotensin (A) I was determined using these rats. The blood pressure was measured with a femoral artery cannula connected to a transducer (product of Nihon Kohden Kabushiki Kaisha, Japan, Model MPU-0.5-290-0-III) and recorded in terms of a mean blood pressure value through a carrier amplifier (product of Nihon Kohden Kabushiki Kaisha, Japan, Model RP-5) on a multipurpose polygraph (product of Nihon Kohden Kabushiki Kaisha, Japan, Model RM-85). The rats were set in an experimental device and left therein for 1 hour to stabilize the hemodynamics. Then experiments were commenced. Since the magnitude of the pressor response to AI varies with time, the ratio of the responses to AI and AII (AI/AII ratio) was used to determine the magnitude of the pressor response to AI which ratio remained more constant. Through the cannulated femoral vein, AI (300 ng/kg) was administered first and AII (300 ng/kg) was given in 5 minutes to measure an AI/AII ratio. At 30 minutes after the first administration of AI, AI (300 ng/kg) was similarly administered and AII (300 ng/kg) was given in 5 minutes, followed by measuring an AI/AII ratio. This procedure was repeated until a constant value of AI/AII ratio was obtained. (The mean value of AI/AII ratios each resulting from the repeated procedure is represented as "C" in an equation to be shown later). At 10 minutes after the final administration of AII, an aqueous solution containing 1 mg/kg of each test compound was given directly to the stomach through a vinyl tube. At 10 minutes after administration of the test compound, AI (300 ng/kg) was given and at 5 minutes later, AII (300 ng/kg) was administered, followed by measurement of the AI/AII ratio (which was represented as "E" in the following equation). An ACE percent inhibition was calculated according to the equation indicated below. [formula]
Subsequently at each time of 60, 120 and 240 minutes after the administration of the test compound, AI (300 ng/kg) was given in the same manner as above and AII (300 ng/kg) was administered in 5 minutes, whereupon an ACE percent inhibition was calculated in the same way.
The results are shown below in Table 26 in which the test compounds listed are those prepared in the Examples indicated therein.

SMILES | ACE inhibitory activity higher than Test Compound No. 4 (fold) [1] | IC50 [1] | ACE Percent Inhibition, mean ± SD ([2]; 15 min. after administration) | ACE Percent Inhibition, mean ± SD ([2]; 60 min. after administration) | ACE Percent Inhibition, mean ± SD ([2]; 120 min. after administration) | ACE Percent Inhibition, mean ± SD ([2]; 240 min. after administration)
CCCCCCSC[C@H](NC(C)C(=O)N1CCC[C@H]1C(=O)O)C(=O)O (single isomer, unassigned) [Test Compound 1] | about 24 times | 0.521 nM |  |  |  | 
CCCCCCSC[C@H](NC(C)C(=O)N1CCC[C@H]1C(=O)O)C(=O)O (single isomer, unassigned) [Test Compound 2] | about 9.4 times | 1.35 nM |  |  |  | 
CCCCCSC[C@H](NC(C)C(=O)N1CCC[C@H]1C(=O)O)C(=O)O (stereo partly drawn) [Test Compound 3, N--[(R)--1-carboxy-2-pentylthioethyl]-alanyl-(S)--proline (β-isomer)] | about 122 times | 0.104 nM |  |  |  | 
CSCC[C@H](NC(C)C(=O)N1CCC[C@H]1C(=O)O)C(=O)O (stereo partly drawn) [Test Compound 4, N--[(S)--1-carboxy-3-methylthiopropyl]-(R,S)--alanyl-(S)--proline, reference compound] |  | 12.7 nM |  |  |  | 
COC(=O)[C@H](CCSC)NC(C)C(=O)N1CCC[C@H]1C(=O)O (stereo partly drawn) [Test Compound 5, N--[(S)--1-methoxycarbonyl-3-methylthiopropyl]-(R,S)--alanyl-(S)--proline hydrochloride, reference compound] |  | 5240 nM | 1 ± 5% | 6 ± 4% | 7 ± 6% | 9 ± 1%
